{"source": "patent US20210161915A1", "about": "“GABA-A ANTAGONISTS FOR TREATING SUBSTANCE […]” (ASARINA PHARMA APS, priority 2018, published 2021)", "key": {"[1]": {"details": "intended doses; cited from earlier work"}, "[2]": {"molecular_target": "T1, human alpha1,beta2,gamma2 Long GABAA receptor subtype (Homo sapiens, UniProt P14867+P47870)", "T1 construct": "expressed in transfected cells; host or cells: HEK-293", "T1 sequence (P14867 28-456)": "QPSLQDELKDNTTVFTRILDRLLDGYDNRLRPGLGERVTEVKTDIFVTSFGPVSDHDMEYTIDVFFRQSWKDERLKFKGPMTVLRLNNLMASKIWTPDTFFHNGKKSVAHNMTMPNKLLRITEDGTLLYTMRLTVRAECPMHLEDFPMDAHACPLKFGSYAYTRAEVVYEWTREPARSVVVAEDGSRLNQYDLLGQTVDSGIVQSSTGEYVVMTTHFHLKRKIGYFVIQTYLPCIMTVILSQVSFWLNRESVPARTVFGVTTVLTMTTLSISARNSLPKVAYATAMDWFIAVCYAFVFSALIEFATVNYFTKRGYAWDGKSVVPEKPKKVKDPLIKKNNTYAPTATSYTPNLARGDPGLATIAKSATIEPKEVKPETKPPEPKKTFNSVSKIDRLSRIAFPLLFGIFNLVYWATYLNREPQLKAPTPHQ", "T1 sequence (P47870 25-512 limits assumed)": "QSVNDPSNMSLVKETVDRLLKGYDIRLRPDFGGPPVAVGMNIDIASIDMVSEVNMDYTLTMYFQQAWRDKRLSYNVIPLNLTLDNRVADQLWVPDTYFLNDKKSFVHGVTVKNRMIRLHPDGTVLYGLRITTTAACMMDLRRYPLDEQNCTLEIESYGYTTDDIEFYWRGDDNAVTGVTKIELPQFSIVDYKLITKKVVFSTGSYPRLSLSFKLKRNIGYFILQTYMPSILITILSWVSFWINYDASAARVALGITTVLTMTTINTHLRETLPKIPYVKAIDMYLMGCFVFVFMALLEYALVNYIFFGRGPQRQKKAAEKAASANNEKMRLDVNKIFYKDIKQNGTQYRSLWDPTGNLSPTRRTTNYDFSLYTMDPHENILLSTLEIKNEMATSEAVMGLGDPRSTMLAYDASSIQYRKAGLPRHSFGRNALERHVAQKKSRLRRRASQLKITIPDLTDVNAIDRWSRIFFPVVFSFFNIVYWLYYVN", "T1 sequence (P18507 40-475 partner)": "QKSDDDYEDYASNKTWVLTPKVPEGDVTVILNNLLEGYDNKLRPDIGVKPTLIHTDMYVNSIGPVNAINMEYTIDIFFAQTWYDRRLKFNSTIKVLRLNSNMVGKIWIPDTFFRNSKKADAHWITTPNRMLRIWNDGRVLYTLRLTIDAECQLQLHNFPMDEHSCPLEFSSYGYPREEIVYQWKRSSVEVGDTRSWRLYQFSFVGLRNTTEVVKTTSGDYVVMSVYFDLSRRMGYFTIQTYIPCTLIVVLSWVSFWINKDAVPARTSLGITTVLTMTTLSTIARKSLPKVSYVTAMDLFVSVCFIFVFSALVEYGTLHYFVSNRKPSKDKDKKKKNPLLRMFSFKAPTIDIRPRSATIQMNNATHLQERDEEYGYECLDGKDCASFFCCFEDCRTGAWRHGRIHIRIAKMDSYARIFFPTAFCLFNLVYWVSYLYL", "test": "Patch-clamp (Dynaflow system) current response in HEK-293 cells transfected with alpha1,beta2,gamma2 Long GABAA receptor", "assay_type": "cell-based", "protocol": "(§1) In these tests the protocol was optimized to be similar to the physiological conditions in the synaptic cleft.\n(§2) Cell culture: HEK-293 cells, permanently transfected with the human alpha1,beta,gamma and alpha4,beta,delta GABAA receptor subtypes, were seeded at a density of 3×10^4/25 cm^2 in a culture flask. The transfected cells were used for patch-clamp experiments 3 days after seeding. When using the cells for patch-clamp experiments the cells were washed twice with oxygen-bubbled extra cellular (EC) solution (see below). About 5 mL EC was then added and the cells were kept in the incubator for about 15 minutes. After 15 minutes the cells came loose from the bottom of the flask and were separated by carefully sucking a couple of times with a Pasteur pipette.\n(§3) Dynaflow™ system with Resolve chip was used for patch-clamp experiments: The electrophysiological recordings from HEK-293 cells were performed under voltage-clamp conditions using patch-clamp technique and the Dynaflow™ system (Dynaflow Pro II Platform Zeiss Axiovert 25; Cellectricon AB, Sweden) with Resolve chips as application system.\n(§4) Patch pipettes were pulled from borosilicate glass and polished to a resistance 2-5 MΩ when filled with suitable intracellular solution (IC) (pH was adjusted to 7.2) and immersed in bath solution (extracellular, EC) (pH is adjusted to 7.4).\n(§5) The recordings were made using an Axopatch 200B amplifier, a Digidata 1322A (Axon instruments, Foster city, USA). Data were analysed using the pCLAMP software sampled at 10 kHz, filtered at 2-10 kHz and analyzed with Clampfit (versions 9.0, both from Axon instruments, Foster city, USA). No higher series resistance than 20 MΩ between pipette and cell membrane was accepted. No series resistance compensation was used. The stability of series resistance was monitored repeatedly from the time course of capacitative transients during the experiments. The measured liquid-junction potential between EC and IC was subtracted in all data presented. All experiments were performed at room temperature (21-23° C.).\n(§6) All steroids were dissolved to the concentration of 6 mM in DMSO. […] End solutions were the solutions added into the wells of the chip.\n(§7) Electrophysiology: After compensating for the liquid junction potential a steady holding potential of −17 mV was used in all experiments. […] By using the holding potential of −17 mV and the intracellular solution with low chloride ion concentration the chloride ions flux into the cell when the receptors were activated.\nThe Dynaflow system allowed application of solutions for as short as 40 ms up to minutes in time.\nIn the experiments, THDOC and 3alpha-OH-adiol were used as the positive GABAA receptor modulating steroids.\n(§8) Different incubation times were studied to achieve the optimal time for attaining stable results and minimize the washout time.\nStudy design: Studies were conducted on current response mediated by chloride ion flux through the GABAA receptor. […] The same patch-clamp technique was used as described above (Example 1) using the Dynaflow™ application system. THDOC was used as positive GABAA receptor modulating steroid as it has shorter washout time compared to allopregnanolone but works with the same mechanisms on the same GABAA receptor binding site as allopregnanolone.\nHEK-293 cells, permanently transfected with cDNA expressing the human alpha1,beta2,gamma2 Long GABAA receptor subtype. The tissue culture and the handling of the cells were as described in Example 1. In the patch-clamp experiments the transfected cells were used minimum two passages after defrosting and 3 days after seeding. The cells were seeded for maximal 25 times."}, "female Wistar rats": {"system": "female Wistar rats", "test": "Resident/intruder (R/I) test of estrus cycle-dependent tolerance/withdrawal symptoms", "assay_type": "in vivo, rat", "details": "1.5 mg/kg s.c. daily", "protocol": "Experimental set-up: Experiments were carried out in female cycling rats. Rats have steroid variations related to ovulation similar to humans. […] The symptoms are related to the excitability changes in the brain that precedes withdrawal symptoms. Symptoms like migraine attacks and epileptic seizure(s) will arrive after a period of tolerance (Reddy & Rogawski 2009; Slawecki et al 2000, Welch K M. 2005). Symptoms in rats were investigated using a resident/intruder (R/I) test with behavioral analysis at the diestrus and the estrus phases of the estrus cycle (FIG. 3). The symptoms referred to in this Example are behavioral symptoms of withdrawal.\nThe frequency of behavioral symptom expression at diestrus and estrus during treatment were compared to the same behavior expression prior to treatment. The intruder rats were ovariectomized animals of the same age and size as the residents.\nAnimals: In total, 42 female Wistar rats (Taconics, Lille Skensved, Denmark) were used. At arrival the animals were approximately 9 weeks old and weighed 185-209 g. For identification, the rats were marked on their tails with permanent ink (PorciMark™). The animals were housed in triads at the animal facility where all experiments took place (Umea University, Umea, Sweden). A reversed light/dark cycle was used (12 h/12 h light/dark; lights off at 04:00). Food (standard chow) and water was available ad libitum. The rats were handled daily for two weeks prior to the start of testing. Nine rats were randomly selected as intruder rats and were ovariectomized. The remaining intact rats were tested for estrus cycle-dependent symptomatic behavior. The study protocol was approved by the Regional Ethics Committee of Umea, Sweden. All animal handling and experiments were performed according to Swedish legislation.\nOvariectomy of the intruder rats: Ovariectomy of the intruder rats was carried out by ligation of uterine tubes and removal of ovaries under anesthesia with 2.3% Isoflurane (Baxter Medical AB, Kista, Sweden) in oxygen (O2 flow rate 0.32 L/min). The surgical suture techniques included the use of surgical glue (Vetbond Tissue Adhesive No 1469 3M) in addition to sutures. Pain relief (Rimadyl Vet, 0.25 mg/100 g) was given daily for one week post-surgery.\nDetermination of estrus cycle phase: Estrus cycle phase (proestrus, estrus, metestrus and diestrus) of the rats was determined by microscope examination of vaginal smears. The smears were collected daily between 08:00 and 10:00, using a glass pipette with 50-70 μL normal saline (NaCl 0.9%), and stained with 0.2% toluidine blue. However, on the day of R/I test, the vaginal smear of a tested animal was collected immediately after the encounter. In addition, during the 3beta-hydroxy-5alpha-pregnan-20-one treatment, the smears were collected directly in the morning before injections to confirm expected estrus cycle phase. Diestrus (including metestrus) is characterized by the presence of leucocytes in smears. Both nucleated epithelial cells and cornified epithelial cells are present at diestrus but more abundantly at metestrus than at late diestrus. Estrus (including proestrus) is characterized by thick smears free from leucocytes but with abundant presence of nucleated epithelial cells (predominant in proestrus) and cornified epithelial cell (predominant at estrus). Further details are provided in Hubscher et al., 2005. […]"}, "[3]": {"molecular_target": "T2, human alpha4,beta,delta GABAA receptor subtype (Homo sapiens, UniProt P28472+P48169)", "T2 construct": "expressed in transfected cells; host or cells: HEK-293", "T2 sequence (P48169 36-554)": "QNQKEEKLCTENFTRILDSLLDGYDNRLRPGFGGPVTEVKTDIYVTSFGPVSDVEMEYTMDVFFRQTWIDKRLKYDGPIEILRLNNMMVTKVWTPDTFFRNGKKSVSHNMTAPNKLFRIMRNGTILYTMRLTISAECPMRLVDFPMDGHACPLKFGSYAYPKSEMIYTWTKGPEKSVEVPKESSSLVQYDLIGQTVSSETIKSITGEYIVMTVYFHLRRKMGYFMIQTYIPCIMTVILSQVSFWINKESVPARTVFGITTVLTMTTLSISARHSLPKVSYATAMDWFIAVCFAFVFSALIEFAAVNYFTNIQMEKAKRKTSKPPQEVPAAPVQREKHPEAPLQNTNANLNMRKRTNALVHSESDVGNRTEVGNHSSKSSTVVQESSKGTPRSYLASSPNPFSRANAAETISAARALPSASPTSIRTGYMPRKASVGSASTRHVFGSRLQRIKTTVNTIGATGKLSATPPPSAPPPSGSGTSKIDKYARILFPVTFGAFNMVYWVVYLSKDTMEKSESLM", "T2 sequence (P28472 26-473)": "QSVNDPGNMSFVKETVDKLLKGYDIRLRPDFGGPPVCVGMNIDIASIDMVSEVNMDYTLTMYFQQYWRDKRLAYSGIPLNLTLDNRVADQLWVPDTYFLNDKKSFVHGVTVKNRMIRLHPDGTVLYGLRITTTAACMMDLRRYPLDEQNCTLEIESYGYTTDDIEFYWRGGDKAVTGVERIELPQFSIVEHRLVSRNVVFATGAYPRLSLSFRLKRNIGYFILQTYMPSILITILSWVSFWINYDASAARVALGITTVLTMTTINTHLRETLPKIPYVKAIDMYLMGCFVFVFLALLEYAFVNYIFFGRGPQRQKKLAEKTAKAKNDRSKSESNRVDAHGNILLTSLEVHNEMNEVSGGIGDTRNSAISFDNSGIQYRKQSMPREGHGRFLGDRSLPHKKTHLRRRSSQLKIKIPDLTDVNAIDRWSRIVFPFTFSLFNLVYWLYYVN", "T2 sequence (O14764 17-452 partner limits assumed)": "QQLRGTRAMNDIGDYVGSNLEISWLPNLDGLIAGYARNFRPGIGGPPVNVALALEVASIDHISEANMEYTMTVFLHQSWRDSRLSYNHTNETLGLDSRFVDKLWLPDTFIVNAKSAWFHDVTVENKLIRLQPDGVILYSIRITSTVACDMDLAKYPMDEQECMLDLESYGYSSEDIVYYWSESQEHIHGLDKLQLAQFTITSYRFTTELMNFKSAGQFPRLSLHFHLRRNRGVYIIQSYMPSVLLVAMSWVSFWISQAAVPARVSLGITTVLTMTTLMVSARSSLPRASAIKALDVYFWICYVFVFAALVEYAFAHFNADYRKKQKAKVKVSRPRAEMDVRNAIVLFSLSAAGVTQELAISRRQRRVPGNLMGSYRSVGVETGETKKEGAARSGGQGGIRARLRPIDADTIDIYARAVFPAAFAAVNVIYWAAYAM", "test": "Patch-clamp (Dynaflow system) current response in HEK-293 cells transfected with alpha4,beta3,delta GABAA receptor", "assay_type": "cell-based", "protocol": "as §1, §2, §3, §4, §5, §6, §7\nThe Dynaflow system allowed application of solutions for as short as 40 ms up to minutes in time. […] There was no difference in response between the second and the third GABA application. Therefore, the first GABA application was always repeated twice and the second response was used in the analysis.\nWashout: GABA is quite soluble in water and easy to washout from the receptor. […] Steroids on the other hand were difficult to dissolve in water and also difficult to washout from the receptor. In the experiments, THDOC and 3alpha-OH-adiol were used as the positive GABAA receptor modulating steroids. With 2 minutes washout time, 200 nM THDOC and 3alpha-OH-adiol was completely washed out as shown by neither an accumulative nor a desensitization effect.\nas §8"}}}
{"smiles": "CC(=O)[C@H]1CC[C@H]2[C@@H]3CC[C@H]4C[C@@H](O)CC[C@]4(C)[C@H]3CC[C@]12C", "note": "[UC1010, 3beta-hydroxy-5alpha-pregnan-20-one]", "values": [{"measurement": "Safety in clinical studies", "setting": "[1]", "value": "shown safe"}, {"measurement": "Imax/Emax Mean ± SEM %, antagonism of THDOC enhanced effect", "setting": "[2]; 1 μM UC1010 + 30 μM GABA + 200 nM THDOC", "value": "−22.3±5.3", "unit": "%"}, {"measurement": "Imax/Emax Mean ± SEM %, effect on GABA response", "setting": "[2]; 1 μM UC1010 + 30 μM GABA, compared to GABA alone", "value": "+10.3 ± 7.8%"}, {"measurement": "Emax", "setting": "[2]; HEK293, 0.1-1 μM UC1010 + 30 μM GABA + 200 nM THDOC, concentration-dependent experiment, read-out: Imax/Emax, max antagonism of THDOC effect", "value": "-21 ± 4.6", "unit": "%"}, {"measurement": "Emax at 1 µM", "setting": "[2]; HEK293, read-out: Imax/Emax Mean ± SEM %, effect on GABA response, 1 μM UC1010 + 30 μM GABA, compared to GABA alone", "value": 10.3, "unit": "%"}, {"measurement": "The effect of 1 μM UC1010 on 8 μM Androstanediol + 30 μM GABA, Mean ± SEM %", "setting": "[2]; steady state (phasic effect)", "value": "−30 ± 1.7", "unit": "%"}, {"measurement": "The effect of 1 μM UC1010 on 8 μM Androstanediol, baseline shift, Mean ± SEM %", "setting": "[2]; tonic effect", "value": "−33 ± 7.6", "unit": "%"}, {"measurement": "Symptoms at diestrus during treatment in comparison to mean diestrus without treatment", "setting": "female Wistar rats; 14 rats with symptoms", "value": "significantly decreased"}, {"measurement": "Relative effect of treatment on symptomatic behavior at diestrus", "setting": "female Wistar rats; baseline diestrus set to 100%, baseline estrus set to 0%, n=14", "value": "−89", "unit": "%"}, {"measurement": "Estrus cycle duration or vaginal smear appearance during treatment", "setting": "female Wistar rats; data not shown", "value": "did not change"}, {"measurement": "Symptomatic behaviors at both diestrus phases when treated compared to diestrus at baseline", "setting": "female Wistar rats; nine rats with symptoms in both cycles", "value": "less frequent"}, {"measurement": "Effect size, Cohen's d", "setting": "female Wistar rats; symptoms at diestrus", "value": 1.67}, {"measurement": "The effect of 1 μM UC1010 on 0.6 μM Androstanediol + 3 μM GABA, Mean ± SEM %", "setting": "[3]", "value": "−18 ± 2.0", "unit": "%"}, {"measurement": "The effect of 1 μM UC1010 on 0.8 μM Androstanediol + 3 μM GABA, Mean ± SEM %", "setting": "[3]", "value": "−22 ± 2.6", "unit": "%"}, {"measurement": "Current response of compound by itself", "setting": "[3]; 1 μM, no GABA, no THDOC", "value": "−0.4±0.3", "unit": "pA"}, {"measurement": "The effect of 1 μM UC1010 on 0.1 μM THDOC alone baseline, Mean ± SEM %", "setting": "[3]; baseline shift without GABA", "value": "−43 ± 3.5", "unit": "%"}, {"measurement": "The effect of 1 μM UC1010 on 3 μM GABA response, Mean ± SEM %", "setting": "[3]; control, GABA alone", "value": "−6.7 ± 3.3", "unit": "%"}, {"measurement": "The effect of 1 μM UC1010 on 0.1 μM THDOC + 3 μM GABA, Mean ± SEM %", "setting": "[3]; steady state", "value": "−26 ± 2.4", "unit": "%"}]}
